Measurements: patent US8603527B2, “Pharmaceutical formulations of a substituted diaminopurine” (Signal Pharmaceuticals, LLC, priority 2010, dated 2013)
Where two headings read alike, the source gives them in different places.

Assays:
Aqueous solubility = type: physicochemical; details: aqueous medium
[1] = Toxicokinetics in pregnant female rabbits; type: in vivo, rabbit; details: for Kp / AUC / Cmax: female, New Zealand White Hra:(NZW)SPF, rabbit; for Kp: fetal plasma / maternal plasma, oral, Gestation Day 19, calculated from individual ratios, read-out: Fetal:Maternal Plasma Ratio; for Kp / Doe plasma concentration / Fetus concentration (pooled fetal blood samples): rabbits; for AUC / Cmax: po, pregnant rabbits; for Doe plasma concentration / Fetus concentration (pooled fetal blood samples): 2 hours after dosing on Gestation Day 19
From the text: (§1) Additionally, four groups of five animals/group served as toxicokinetic (TK) animals and received the vehicle or test article in the same manner and dose levels as the main study groups. All time-mated females arrived at the laboratory on GD 0, the day evidence of mating was observed.

[2] = Pharmacokinetics of a single ascending oral dose in healthy male subjects; type: in vivo, human; details: for AUC(0-inf) / AUC(0-t) / Cmax / half-life / Vd/F / Tmax: human, in vivo; for Vd/F: read-out: Vz/F
Method: Methods: The study was a randomized, double-blind, placebo-controlled, single-ascending-dose trial. Forty-five healthy male subjects were enrolled into 1 of the 5 cohorts (active:placebo=7:2 per cohort). Subjects received single oral doses of 5 mg, 25 mg, 50 mg, 100 mg or 200 mg of unformulated Compound I in a capsule, or matching placebo.

[3] = Relative bioavailability and food effect crossover study of formulated capsules in healthy male subjects; type: in vivo, human; details: Treatments A-D, single 100 mg dose
From the text: Methods: This was an open-label, randomized, 4-treatment, 4-period, 4-sequence crossover study in healthy subjects to evaluate relative bioavailability and food effect on Compound I capsule formulations. The study consisted of a screening phase (Day −21 to Day −2) for subject eligibility, a baseline/admission phase (Day −1) for each period, treatment and assessment phase (Days 1 to Day 8) for each period, and a follow-up visit (Day 15±2 days from the last dose). During each period, subjects were domiciled at the study site from Day −1 through Day 2 (discharged on Day 3 after PK sampling and safety evaluations). Subjects then visited the study center on Days 4, 6, and 8 of each period for PK sampling and safety evaluations. Between periods, there was a minimum of 10 days of washout from the prior dose to the next dose (no more than 14 days).
Sixteen (16) male subjects were be randomized to one of the following 4 treatment sequences (4 subjects per sequence) on Day 1 of Period 1:
Subjects started fasting from the night of Day −1 for a minimum of 10 hours prior to dosing. On Day 1 of each period, subjects received their randomized treatment of Compound I at approximately 8 AM. […] Approximately 5 mL of blood sample was collected on days 1-8 for PK analysis. Subjects received standardized meals scheduled at approximately the same time during confinement in each period of the study.

[4] = system: time-mated female New Zealand White Hra:(NZW)SPF rabbits; details: rabbit, in vivo, 10 mg/kg/day
From the text: as §1

[5] = plasma, 10 mg/kg/day, 10 mg/kg/d oral, Gestation Day 7
[6] = plasma, 10 mg/kg/day, 10 mg/kg/d oral, Gestation Day 18
[7] = plasma, 20 mg/kg/day, 20 mg/kg/d oral, Gestation Day 7
[8] = plasma, 40 mg/kg/day, 40 mg/kg/d oral, Gestation Day 7
[9] = plasma, 40 mg/kg/day, 40 mg/kg/d oral, Gestation Day 18
[10] = single oral dose 5 mg, unformulated in capsule, healthy male subjects, geometric mean
[11] = single oral dose 25 mg, unformulated in capsule, healthy male subjects, geometric mean
[12] = single oral dose 50 mg, unformulated in capsule, healthy male subjects, geometric mean
[13] = single oral dose 100 mg, unformulated in capsule, healthy male subjects, geometric mean
[14] = single oral dose 200 mg, unformulated in capsule, healthy male subjects, geometric mean
[15] = male, single oral doses 5-200 mg

`O[C@H]1CC[C@H](Nc2ncc3nc(Nc4c(F)cc(F)cc4F)n([C@H]4CCOC4)c3n2)CC1` [Compound I, 4-((9-((3S)-tetrahydro-3-furanyl)-8-((2,4,6-trifluorophenyl)amino)-9H-purin-2-yl)amino)-trans-cyclohexanol] gave a solubility (Aqueous solubility) of under 1000 µg/mL, a Kp ([1]; 10 mg/kg/day, 10 mg/kg/d) of 0.1 and a Kp ([1]; 20 mg/kg/day, 20 mg/kg/d) of 0.09. It also gave a Kp ([1]; 40 mg/kg/day, 40 mg/kg/d) of 0.24, an AUC ([1]; in vivo, 20 mg/kg/day, 20 mg/kg/d oral, Gestation Day 18) of 85000 ng·h/mL and an AUC [1, 5] of 35200 ng·h/mL. The Cmax [1, 5] was 6520 ng/mL, the AUC [1, 6] was 39300 ng·h/mL and the Cmax [1, 6] was 6730 ng/mL. The AUC [1, 7] was 79100 ng·h/mL, the Cmax [1, 7] was 12500 ng/mL and the Cmax ([1]; plasma, 20 mg/kg/day, 20 mg/kg/d oral, Gestation Day 18) was 13200 ng/mL. It also gave an AUC [1, 8] of 152000 ng·h/mL, a Cmax [1, 8] of 21200 ng/mL and an AUC [1, 9] of 152000 ng·h/mL. The Cmax [1, 9] was 21500 ng/mL, the “maternal AUC as fold of human AUC” value ([1]; rabbits at NOAEL 20 mg/kg/day vs human 100 mg BID) was about 3.4 fold and the “maternal AUC as fold of human AUC” value ([1]; rabbits at NOAEL 20 mg/kg/day vs human 200 mg BID) was about 1.6 fold. The Doe plasma concentration ([1]; 10 mg/kg/d) was 4916 ng/mL, the “Fetus concentration (pooled fetal blood samples)” value (from here on “Fetus concentration”) ([1]; 10 mg/kg/d) was 465.7 ng/mL and the Doe plasma concentration ([1]; 20 mg/kg/d) was 9217 ng/mL. The “Fetus concentration” value ([1]; 20 mg/kg/d) was 870.7 ng/mL, the Doe plasma concentration ([1]; 40 mg/kg/d) was 15594 ng/mL and the “Fetus concentration” value ([1]; 40 mg/kg/d) was 3426 ng/mL. It also gave an AUC(0-inf) [2, 10] of 625 ng·h/mL, an AUC(0-t) [2, 10] of 567 ng·h/mL and a Cmax [2, 10] of 34.7 ng/mL. The half-life [2, 10] was 19.1 h, the Vd/F [2, 10] was 221 L and the Tmax ([2]; single oral dose 5 mg, unformulated in capsule, healthy male subjects, median (min-max), read-out: Tmax) was 1.5 h. The AUC(0-inf) [2, 11] was 3600 ng·h/mL, the AUC(0-t) [2, 11] was 3150 ng·h/mL and the Cmax [2, 11] was 163 ng/mL. For the same compound, the half-life [2, 11] was 24.1 h, the Vd/F [2, 11] was 241 L and the Tmax ([2]; single oral dose 25 mg, unformulated in capsule, healthy male subjects, median (min-max), read-out: Tmax) was 1.5 h. It also gave an AUC(0-inf) [2, 12] of 7320 ng·h/mL, an AUC(0-t) [2, 12] of 6700 ng·h/mL and a Cmax [2, 12] of 367 ng/mL. For the same compound, the half-life [2, 12] was 20.4 h, the Vd/F [2, 12] was 202 L and the Tmax ([2]; single oral dose 50 mg, unformulated in capsule, healthy male subjects, median (min-max), read-out: Tmax) was 2 h. It also gave an AUC(0-inf) [2, 13] of 13600 ng·h/mL, an AUC(0-t) [2, 13] of 10800 ng·h/mL and a Cmax [2, 13] of 471 ng/mL. The half-life [2, 13] was 27.5 h, the Vd/F [2, 13] was 293 L and the Tmax ([2]; single oral dose 100 mg, unformulated in capsule, healthy male subjects, median (min-max), read-out: Tmax) was 2 h. It also gave an AUC(0-inf) [2, 14] of 26400 ng·h/mL, an AUC(0-t) [2, 14] of 23100 ng·h/mL and a Cmax [2, 14] of 1430 ng/mL. The half-life [2, 14] was 25 h, the Vd/F [2, 14] was 273 L and the Tmax ([2]; single oral dose 200 mg, unformulated in capsule, healthy male subjects, median (min-max), read-out: Tmax) was 1.5 h. The AUC(0-inf) [2, 15] was 600 to 27000 ng·h/mL, the AUC(0-t) [2, 15] was 500 to 24000 ng·h/mL and the Cmax [2, 15] was 30 to 1500 ng/mL. The half-life [2, 15] was 19 to 28 h, the Tmax ([2]; male, single oral doses 5-200 mg, unformulated in a capsule, healthy males, read-out: median Tmax) was 1.5 to 2 h and the Vd/F [2, 15] was 200 to 300 L. For the same compound, the “urinary excretion of unchanged Compound I” value ([2]; over 72 hrs post-dose, single oral doses) was 9-13 % of the administered dose, the CLF [2, 10] was 133.36 mL/min and the CLF [2, 11] was 115.58 mL/min. The CLF [2, 12] was 113.88 mL/min, the CLF [2, 13] was 122.89 mL/min and the CLF [2, 14] was 126.02 mL/min. The CLF ([2]; single oral doses 5-200 mg) was 100 to 140 mL/min, the “AUCt, Intra-Subject CV %” value [3] was 16.1% and the “AUC∞, Intra-Subject CV %” value [3] was 15.3%. The “Cmax, Intra-Subject CV %” value [3] was 36.8% and the “maternal or developmental toxicity” value [4] was “No maternal or developmental toxicity”.
